Reference: patent US20080234629A1, “WATER ELECTROLYSIS TO FACILITATE DRUG DELIVERY BY IONTOPHORESIS” (priority 2007, published 2008)

Assay: Solubility of acyclovir in the aqueous portion of the formulation, from propylene glycol/water solubility measurements
Format: physicochemical
Conditions: estimated from propylene glycol/water solubility measurements
Excerpt: Assuming that the electrolysis is 100% efficient, the expected proton generation is […] (0.4 mA×600 sec×6.2×10^18, coulomb, ÷[…]; assuming each electron generate one proton). Thus the electrolysis of water provides enough protons to ionize the soluble portion of the dose. Since the current density in the invented system is typical for iontophoresis, the rate of proton generation in this system can be realized in other iontophoretic systems. Because the coulombic dose in this iontophoretic system is at the low end of iontophoretic doses, larger quantities of protons could be generated for use in other applications.

solubility of acyclovir in the aqueous portion of the formulation: ~0.3 % by weight
Structure (SMILES): Nc1nc2c(ncn2COCCO)c(=O)[nH]1 [Acyclovir]
